Marks after values point to notes of the source that are not given here. Square brackets hold non-standard residues; d marks the D form. Ends that are not written are not given here. Hyp = O=C(O)[C@@H]1C[C@@H](O)CN1
Tests used:
[1] = test system: D93 binding to human denatured-collagen IV; experiment: Competition ELISA: synthetic peptides blocking D93 binding to heat denatured collagen IV
Method: (§1) The ELISA was conducted as follows: wells of a 96-well microtiter plate (Immulon, 4 HBX flat-bottomed, Thermo Electron Corporation, Waltham, Mass.) were coated with 100 μL/well of dn-collagen IV at 10 μg/mL in Phosphate Buffered Saline (PBS) overnight at 4° C. The plate was washed 3 times (3×) with PBS containing 0.05% (v/v) Tween-20 (PBST) using an automated plate washer.
(§2) The plate was blocked by adding 300 μL/well of 1% BSA (w/v) in PBS for 1 hour at 25° C. followed by washing 3× in PBST as above.
(§3) Solutions of D93 or HUI77 were prepared with various concentrations of peptide or antibody inhibitor and incubate for 15 minutes. D93 or HUI77 was prepared at 200 ng/mL in 1% BSA/PBS.
(§4) For antibody blocking studies using synthetic peptides: peptide inhibitor stock solutions were prepared at 2 mM, 0.2 mM, 0.02 mM, and 0.002 mM in 1% BSA/PBS. 500 μL of a 2 mM peptide solution in 1% BSA/PBS was prepared and diluted 1:10 in 500 μL a total of three times to make peptide inhibitor concentrations.
(§5) 200 μL of D93 or HUI77 at 200 ng/mL solution was combined with 200 μL of peptide or antibody inhibitor solution and incubated for 15 minutes at room temperature.
(§6) D93 or HUI77 with various concentrations of inhibitors (2 mM, 0.2 mM, 0.02 mM, and 0.002 mM) were added to microplate wells and incubated for 1 hour at 25° C. The plate was washed 3× in PBST as above.
(§7) To each microtiter plate well, 100 μL of diluted anti-human IgG or anti-mouse IgM conjugated to horseradish peroxidase (HRP) in PBST was added and incubated for one hour at 25° C.: (a) for D93: Goat anti-human IgG-HRP (Jackson ImmunoResearch, Catalog No. 109-035-088) was used at 1:20,000 and (b) for HUI77: Goat anti-mouse IgM-HRP was used at 1:4,000. Plates were washed 3× in PBST as above.
(§8) Tetramethylbenzidine (TMB) substrate (100 μL; Pierce Chemicals)) was added to wells and the plates were allowed to develop at room temperature for 15 minutes in the dark. Substrate development was stopped by adding 50 μL/well of 2N H2SO4. The microtiter […] plates were read at 450 nm within five minutes of adding the H2SO4. Reactivity was measured with a microplate reader (Molecular Devices, Sunnyvale, Calif.) at a wavelength of 450 nm and analyzed using SOFTMax® PRO4.0 (Molecular Devices). All samples were tested in triplicate.
(§9) Individual peptides with amino acid substitutions and deletions were also synthesized based on the primary and secondary peptide arrays. […] The inhibitory activity of the individual peptides was tested by ELISA as previously described to measure binding of D93 or HUI77 to denatured collagen where peptides and antibodies were prepared at a 2× concentration and pre-incubated for 15 minutes prior to adding to microtiter plates coated with dn-collagen.
(§10) 96-well plates were coated with 100 μL/well of denatured (dn) collagen IV at 10 μg/mL in phosphate buffered saline (PBS) overnight at 4° C. followed by washing the plates in an automated plate washer 3 times in PBS containing 0.05% (v/v) Tween-20 (PBST). Non-specific binding was prevented by blocking the wells by adding 300 μL/well of 1% bovine serum albumin (BSA) (w/v) in PBS for 1 hour (hr) at 25° C. The plates were washed as above.
(§11) Solutions of D93 and HUI77 antibodies were prepared with various concentrations of inhibitor and incubated for 15 minutes. Briefly, 20 mLs of D93 or HUI77 were prepared at 200 ng/mL in 1% BSA/PBS. Solutions of peptide inhibitors (2 mM, 0.2 mM, […]) were prepared in 1% BSA/PBS. Equal volumes of antibodies and peptide inhibitors were combined: 200 μL of D93 or HUI77 (200 ng/mL solution) with 200 μL of each peptide solution.
(§12) 100 μL/well of D93 or HUI77 at 100 ng/mL with various concentrations of inhibitors were added to the wells in triplicate and incubated for 1 hour at 25° C. The plates were washed as described above.
(§13) 100 μL/well of secondary horseradish peroxidase (HRP)-conjugated antibody in PBST was added to each well and incubated for 1 hour (hr) at 25° C. […]

[2] = test system: HUI77 binding to denatured collagen IV; experiment: Competition ELISA: synthetic peptides blocking HUI77 binding to heat denatured collagen IV; parameters: species or system human
Method: as §1, §2, §3, §4, §5, §6, §7, §8, §9, §10, §11, §12, §13

[3] = peptide inhibitor concentration 1 μM, average of two studies, vs 1% BSA/PBS alone
[4] = peptide inhibitor concentration 10 μM, average of two studies, vs 1% BSA/PBS alone
[5] = peptide inhibitor concentration 100 μM, average of two studies, vs 1% BSA/PBS alone
[6] = peptide inhibitor concentration 1000 μM, asterisk (*): data from a separate assay
[7] = peptide inhibitor concentration 1000 μM, average of two studies, vs 1% BSA/PBS alone
[8] = peptide inhibitor concentration 10 μM, average of two studies
[9] = peptide inhibitor concentration 100 μM, average of two studies
[10] = peptide inhibitor concentration 1000 μM, average of two studies
[11] = peptide inhibitor concentration 100 μM, asterisk (*): data from a separate assay

Row | % INHIBITION OF BINDING OF D93 TO HUMAN DENATURED-COLLAGEN IV [1, 3] [%] | % INHIBITION OF BINDING OF D93 TO HUMAN DENATURED-COLLAGEN IV [1, 4] | % INHIBITION OF BINDING OF D93 TO HUMAN DENATURED-COLLAGEN IV [1, 5] [%] | % INHIBITION OF BINDING OF D93 TO HUMAN DENATURED-COLLAGEN IV [1, 7] [%] | % INHIBITION OF BINDING OF HUI77 TO DENATURED COLLAGEN IV [2, 8] [%] | % INHIBITION OF BINDING OF HUI77 TO DENATURED COLLAGEN IV [2, 9] [%] | % INHIBITION OF BINDING OF HUI77 TO DENATURED COLLAGEN IV [2, 10] [%] | Substance | also measured
1 | 4.5 | 1% | 0 | 3.5 | 6.5 | 6.5 | 6.5 | CTWPRHHTTDALL [SEQ ID NO: 39, reference compound] | % INHIBITION OF BINDING OF D93 TO HUMAN DENATURED-COLLAGEN IV [1, 6]: 4.9%; % INHIBITION OF BINDING OF HUI77 TO DENATURED COLLAGEN IV [2, 6]: 11.1%
2 | 11 | 43% | 89.5 | 93.5 | 4.5 | 9 | 62 | F-Hyp-G-P-Hyp-G-P-D-G-L-P-G-S-M-G-P-Hyp-G (F[Hyp]GP[Hyp]GPDGLPGSMGP[Hyp]G) [SEQ ID NO: 36] | –
3 | 9.5 | 6.5% | 11 | 52 | 6.5 | 9 | 14 | G-P-Hyp-G (GP[Hyp]G) [SEQ ID NO: 34] | –
4 | 33 | 82.5, % | 94 | 94 | 8.5 | 12 | 78 | G-P-Hyp-G-P-Hyp-G-P-Y (GP[Hyp]GP[Hyp]GPY) [SEQ ID NO: 30] | % INHIBITION OF BINDING OF D93 TO HUMAN DENATURED-COLLAGEN IV ([1]; peptide inhibitor concentration 10 μM, asterisk (*): data from a separate assay): 79.9* %; % INHIBITION OF BINDING OF D93 TO HUMAN DENATURED-COLLAGEN IV [1, 11]: 90.3%; % INHIBITION OF BINDING OF HUI77 TO DENATURED COLLAGEN IV [2, 11]: 0%; % INHIBITION OF BINDING OF HUI77 TO DENATURED COLLAGEN IV [2, 6]: 63%
5 | 7 | 6% | 3.5 | 7.5 | 2.5 | 8 | 3.5 | GPPG [SEQ ID NO: 35] | –
6 | – | – | – | – | – | – | – | GPPGPPG (GPXGPXG; MOD_RES (3) Hydroxyproline; MOD_RES (6) Hydroxyproline) [SEQ ID NO: 32] | % INHIBITION OF BINDING OF D93 TO HUMAN DENATURED-COLLAGEN IV ([1]; peptide inhibitor concentration 1 μM, average of two studies, vs 1% BSA/PBS alone, listed as 15 (32), 1 µM): 8%; % INHIBITION OF BINDING OF D93 TO HUMAN DENATURED-COLLAGEN IV ([1]; peptide inhibitor concentration 10 μM, average of two studies, vs 1% BSA/PBS alone, listed as 15 (32), 10 µM): 17%; % INHIBITION OF BINDING OF D93 TO HUMAN DENATURED-COLLAGEN IV ([1]; peptide inhibitor concentration 100 μM, average of two studies, vs 1% BSA/PBS alone, listed as 15 (32), 100 µM): 64%; % INHIBITION OF BINDING OF D93 TO HUMAN DENATURED-COLLAGEN IV ([1]; peptide inhibitor concentration 1000 μM, average of two studies, vs 1% BSA/PBS alone, listed as 15 (32), 1000 µM): 92.5%; % INHIBITION OF BINDING OF HUI77 TO DENATURED COLLAGEN IV ([2]; peptide inhibitor concentration 10 μM, average of two studies, listed as 15 (32), 10 µM): 6%; % INHIBITION OF BINDING OF HUI77 TO DENATURED COLLAGEN IV ([2]; peptide inhibitor concentration 100 μM, average of two studies, listed as 15 (32), 100 µM): 7.5%; % INHIBITION OF BINDING OF HUI77 TO DENATURED COLLAGEN IV ([2]; peptide inhibitor concentration 1000 μM, average of two studies, listed as 15 (32), 1000 µM): 77%
7 | – | – | – | – | – | – | – | GPPGPPG [SEQ ID NO: 33] | % INHIBITION OF BINDING OF D93 TO HUMAN DENATURED-COLLAGEN IV ([1]; peptide inhibitor concentration 1 μM, average of two studies, vs 1% BSA/PBS alone, listed as 23 (33), 1 µM): 5%; % INHIBITION OF BINDING OF D93 TO HUMAN DENATURED-COLLAGEN IV ([1]; peptide inhibitor concentration 10 μM, average of two studies, vs 1% BSA/PBS alone, listed as 23 (33), 10 µM): 4.5%; % INHIBITION OF BINDING OF D93 TO HUMAN DENATURED-COLLAGEN IV ([1]; peptide inhibitor concentration 100 μM, average of two studies, vs 1% BSA/PBS alone, listed as 23 (33), 100 µM): 1.5%; % INHIBITION OF BINDING OF D93 TO HUMAN DENATURED-COLLAGEN IV ([1]; peptide inhibitor concentration 1000 μM, average of two studies, vs 1% BSA/PBS alone, listed as 23 (33), 1000 µM): 6.5%; % INHIBITION OF BINDING OF HUI77 TO DENATURED COLLAGEN IV ([2]; peptide inhibitor concentration 10 μM, average of two studies, listed as 23 (33), 10 µM): 1.5%; % INHIBITION OF BINDING OF HUI77 TO DENATURED COLLAGEN IV ([2]; peptide inhibitor concentration 100 μM, average of two studies, listed as 23 (33), 100 µM): 2%; % INHIBITION OF BINDING OF HUI77 TO DENATURED COLLAGEN IV ([2]; peptide inhibitor concentration 1000 μM, average of two studies, listed as 23 (33), 1000 µM): 1%
8 | 9.5 | 21% | 77 | 92.5 | 7.5 | 12 | 44 | GPPGPPGP (GPXGPXGP; MOD_RES (3) Hydroxyproline; MOD_RES (6) Hydroxyproline) [SEQ ID NO: 31] | –
9 | 30 | 81% | 93.5 | 93.5 | 7.5 | 18 | – | Hyp-G-A-K-G-L-P-G-P-Hyp-G-P-Hyp-G-P-Y [SEQ ID NO: 2] | % INHIBITION OF BINDING OF HUI77 TO DENATURED COLLAGEN IV ([2]; peptide inhibitor concentration 1000 μM, average of two studies, 1000 µM): 86%; % INHIBITION OF BINDING OF HUI77 TO DENATURED COLLAGEN IV ([2]; peptide inhibitor concentration 1000 μM, average of two studies, listed as 12 (2), 1000 µM): 86.5%
10 | 10.5 | 6% | 8 | 32 | 7 | 14.5 | 75 | L-Hyp-G-F-Hyp-G (L[Hyp]GF[Hyp]G) [SEQ ID NO: 23] | –
11 | 6.5 | 12% | 52.5 | 90 | 3 | 8 | 64 | L-Hyp-G-P-Hyp-G (L[Hyp]GP[Hyp]G) [SEQ ID NO: 24] | –

Reference: patent publication US20080008707A1, “Denatured collagen peptides and uses thereof” (Cell-Matrix, Inc., priority 2006, published 2008)
